{"source": "patent US20210228500A1", "about": "“CELLULAR RETINOID BINDING PROTEIN ANTAGONISTS AND USES THEREOF” (CASE WESTERN RESRVE UNIVERSITY, priority 2018, published 2021)", "key": {"[1]": {"biological_target": "T1, RPE65 (Bos taurus, UniProt Q28175)", "T1 construct": "from tissue; host or cells: bovine RPE microsomes", "T1 sequence (Q28175 whole entry)": "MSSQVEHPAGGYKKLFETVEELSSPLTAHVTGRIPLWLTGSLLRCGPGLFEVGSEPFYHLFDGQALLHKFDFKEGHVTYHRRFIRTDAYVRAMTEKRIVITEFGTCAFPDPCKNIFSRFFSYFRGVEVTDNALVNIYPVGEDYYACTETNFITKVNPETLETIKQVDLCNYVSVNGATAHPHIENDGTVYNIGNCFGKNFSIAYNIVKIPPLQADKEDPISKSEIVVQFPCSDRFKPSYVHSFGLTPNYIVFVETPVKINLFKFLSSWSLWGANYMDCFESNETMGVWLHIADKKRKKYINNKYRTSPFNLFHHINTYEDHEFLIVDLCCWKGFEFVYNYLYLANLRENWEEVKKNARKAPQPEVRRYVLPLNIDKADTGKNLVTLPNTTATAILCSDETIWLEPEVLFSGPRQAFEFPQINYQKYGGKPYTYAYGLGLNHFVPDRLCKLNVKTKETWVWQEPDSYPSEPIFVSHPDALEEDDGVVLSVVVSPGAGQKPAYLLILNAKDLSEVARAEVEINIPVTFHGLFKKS", "test": "RPE65 isomerization activity assay", "assay_type": "biochemical", "details": "bovine RPE microsomes preincubated with 10-50 μM", "experimental": "For the retinoid isomerization assay, UV-bleached RPE microsomes isolated from bovine eyes served as a source of robust RPE65 enzymatic activity. The isomerization reaction was performed in the presence of cellular retinaldehyde-binding protein (CRALBP) according to an established methodology published previously. The enzymatic reaction was initiated by addition of atROL the final concentration of 10 μM. After incubation at 30° C. for 30 min, the reaction products were extracted with hexane and analyzed by HPLC as described above.\nThus, to further probe the biological effect of this compound, we tested its effect on the key enzymes of the visual cycle. For this purpose, microsomes isolated from bovine RPE cells were preincubated with 10-50 μM of abn-CBD (1:1 to 1:5 molar excess of cannabinoid) prior to the initiation of the esterification, isomerization, or oxidation reactions by addition of an adequate retinoid substrate."}, "[2]": {"biological_target": "T2, CRBP4 (Homo sapiens, UniProt Q96R05)", "T2 construct": "thrombin cut site (residual residues after digestion) (C); 6x histidine tag (C, cleaved yes); made in house; host or cells: E. coli BL21 (DE3) (as for CRBP2)", "T2 sequence (Q96R05 1-134)": "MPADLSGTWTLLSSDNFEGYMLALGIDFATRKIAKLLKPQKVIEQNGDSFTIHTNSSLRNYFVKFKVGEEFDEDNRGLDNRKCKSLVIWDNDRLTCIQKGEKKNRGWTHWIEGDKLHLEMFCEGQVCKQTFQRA", "test": "Crystal structure of CRBP4 in complex with abn-CBD", "assay_type": "binding", "details": "crystal structure PDB No. 6E6K", "from_the_text": "The cDNA of human CRBP4 was purchased from Origene Technologies. The introduction of a thrombin cut site at the C-terminus was achieved by PCR amplification of the cDNA. The PCR product was subcloned into pET30b vector. For the most part, CRBP4 was expressed and purified as described for CRBP2. However, after digestion with thrombin and reloading onto HisTrap column, the unbound fraction of the protein was further purified on a HiTrap SP HP ion exchanger column (GE Healthcare). CRBP4 was loaded in 10 mM Tris/HCl buffer, pH 8.0 buffer, and subsequently eluted with a gradient of NaCl (0-0.5 M) over 30 min at a flow rate 1.0 mL min^−1. Purified CRBP4 was concentrated to 6 mg mL^−1 and liquated at −80° C.\nCrystals of CRBP1 in complex abn-CBD and its derivatives (abn-CBDO or CBDO) were grown essentially as described by Silvaroli et al (ACS Chem Biol. 2019, 15; 14(3)). The apo protein at 3 mg mL-1 was preincubated with 300 μM of a ligand in 10 mM Tris-HCl buffer, pH 8.0, 150 mM NaCl for 15 min on ice. This sample (1 μL) was mixed in 1:1 ratio with a crystallization solution composed of 0.1 M BisTris, pH 5.5, and 25% poly(ethylene glycol) (PEG) 3350 (w/v). […]"}, "[3]": {"biological_target": "T3, LRAT (Bos taurus, UniProt Q9BGL2)", "T3 construct": "from tissue; host or cells: bovine RPE microsomes", "T3 sequence (Q9BGL2 1-230)": "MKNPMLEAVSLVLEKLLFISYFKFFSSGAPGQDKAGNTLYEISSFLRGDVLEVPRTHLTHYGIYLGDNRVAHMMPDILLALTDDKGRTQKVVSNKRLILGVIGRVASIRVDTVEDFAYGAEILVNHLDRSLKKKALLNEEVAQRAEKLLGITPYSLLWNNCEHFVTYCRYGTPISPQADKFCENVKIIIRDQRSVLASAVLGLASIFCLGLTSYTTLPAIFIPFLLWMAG", "test": "Retinol esterification assay", "assay_type": "biochemical", "details": "bovine RPE microsomes preincubated with 10-50 μM", "experimental": "The enzymatic activity of LRAT was assayed using isolated UV-treated bovine RPE microsomes as described previously. The reaction mixture included 20 mM Tris/HCl buffer, pH 7.4, 1 mM DTT, 1% bovine serum albumin (BSA; w/v), and RPE microsomes (˜100 μg of total protein) in the total volume of 0.1 mL. To test the influence of abn-CBD on the LRAT activity, 10, 20, or 50 μM of this compound was added prior to the addition of atROL (final concentration of 10 μM). To record the initial rate of the esterification, the mixture was incubated at RT for 5 min. The reaction was quenched with 0.2 mL of methanol, and the retinoids were extracted with 0.3 mL of hexane. The extracted retinoids were separated on a normal phase column (Agilent Zorbax Sil 5 μm 4.6×250 mm) in an isocratic flow of 10% ethyl acetate in hexane (flow rate of 1.5 mL min^−1). Elution of retinoids was monitored at 325 nm. All-trans-retinyl esters were quantified based on a correlation between the amount of injected synthetic standards and the area under chromatographic peaks.\nThus, to further probe the biological effect of this compound, we tested its effect on the key enzymes of the visual cycle. […]"}}}
{"smiles": "C=C(C)[C@@H]1CCC(C)=C[C@H]1c1c(O)cc(O)cc1CCCCC", "note": "[abn-CBD, 4-[(1R,6R)-3-Methyl-6-prop-1-en-2-ylcyclohex-2-en-1-yl]-5-pentylbenzene-1,3-diol]", "values": [{"measurement": "effect on enzymatic activity of RPE65", "setting": "[1]", "value": "did not cause a measurable decline"}, {"measurement": "binding to CRBP4", "setting": "[2]", "value": "bind abn-CBD similarly to CRBP1"}, {"measurement": "effect on enzymatic activity of LRAT", "setting": "[3]", "value": "did not cause a measurable decline"}]}
